Results taken from PubChem BioAssay (NCI).
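Results reflect a 48-hour exposure of cells in 96-well plates to compound at five concentrations. The concentration for 50% growth inhibition is given as GI50. Definition used: TGI = concentration required for complete inhibition of growth.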

Tests used:
Experiment in all cases: NCI-60 cell line screen, 48 h
[1] = test system: T-47D breast
[2] = test system: HCC-2998 colon
[3] = test system: SK-MEL-2 melanoma
[4] = test system: OVCAR-4 ovarian
[5] = test system: A498 renal
[6] = test system: SNB-19 CNS
[7] = test system: OVCAR-8 ovarian
[8] = test system: U251 CNS
[9] = test system: UACC-257 melanoma
[10] = test system: HT29 colon
[11] = test system: OVCAR-5 ovarian
[12] = test system: MDA-MB-435
[13] = test system: SK-OV-3 ovarian
[14] = test system: MCF7 breast
[15] = test system: COLO 205 colon
[16] = test system: RXF 393 renal
[17] = test system: SF-539 CNS
[18] = test system: UO-31 renal
[19] = test system: CAKI-1 renal
[20] = test system: NCI/ADR-RES ovarian
[21] = test system: M14 melanoma
[22] = test system: SK-MEL-28 melanoma
[23] = test system: KM12 colon
[24] = test system: 786-0 renal
[25] = test system: OVCAR-3 ovarian
[26] = test system: PC-3 prostate
[27] = test system: NCI-H522 lung
[28] = test system: HOP-92 NSCLC
[29] = test system: HS 578T breast
[30] = test system: NCI-H23 lung
[31] = test system: A549 NSCLC
[32] = test system: HCT-15 colon
[33] = test system: HCT-116 colon
[34] = test system: BT-549 breast
[35] = test system: SF-295 CNS
[36] = test system: DU-145 prostate
[37] = test system: HOP-62 NSCLC
[38] = test system: ACHN renal
[39] = test system: SK-MEL-5 melanoma
[40] = test system: HL-60(TB) leukemia
[41] = test system: SF-268 CNS
[42] = test system: IGROV1 ovarian
[43] = test system: SW-620 colon
[44] = test system: SN12C renal
[45] = test system: SNB-75 CNS
[46] = test system: EKVX NSCLC
[47] = test system: NCI-H226 lung
[48] = test system: MALME-3M melanoma
[49] = test system: LOX IMVI melanoma
[50] = test system: TK-10 renal

COc1ccc(Nc2nccc(Nc3ccc4[nH]ncc4c3)n2)cc1
GI50 [1]: 1.77 µM | TGI [1]: 5.42 µM | GI50 [2]: 2.88 µM | TGI [2]: 8.05 µM | GI50 [3]: 2.4 µM | TGI [3]: 6.39 µM | GI50 [4]: 2.99 µM | TGI [4]: 11.8 µM | GI50 [5]: 4.62 µM | TGI [5]: 17.2 µM | GI50 [6]: 4.3 µM | TGI [6]: 87 µM | GI50 [7]: 2.24 µM | TGI [7]: 5.39 µM | GI50 [8]: 3.61 µM | TGI [8]: 13.6 µM | GI50 [9]: 5.41 µM | TGI [9]: 16.9 µM | GI50 [10]: 2.36 µM | TGI [10]: 8.33 µM | GI50 [11]: 3.33 µM | TGI [11]: > 100 µM | GI50 [12]: 2.1 µM | TGI [12]: 5.7 µM | GI50 [13]: 7.04 µM | TGI [13]: 21.7 µM | GI50 [14]: 2.05 µM | TGI [14]: 5.36 µM | GI50 [15]: 2.59 µM | TGI [15]: 7.21 µM | GI50 [16]: 1.98 µM | TGI [16]: 6.45 µM | GI50 [17]: 4.38 µM | TGI [17]: 16.8 µM | GI50 [18]: 2.12 µM | TGI [18]: 11.4 µM | GI50 [19]: 2.22 µM | TGI [19]: 14.9 µM | GI50 [20]: 2.18 µM | TGI [20]: 5.75 µM | GI50 [21]: 2.39 µM | TGI [21]: 6.15 µM | GI50 [22]: 3.64 µM | TGI [22]: 16.5 µM | GI50 [23]: 3.45 µM | TGI [23]: 24.2 µM | GI50 [24]: 1.74 µM | TGI [24]: 4.75 µM | GI50 [25]: 3.15 µM | TGI [25]: 10.6 µM | GI50 [26]: 2.21 µM | TGI [26]: 7.2 µM | GI50 [27]: 1.86 µM | TGI [27]: 4.77 µM | GI50 [28]: 3.13 µM | TGI [28]: 12.9 µM | GI50 [29]: 5.02 µM | TGI [29]: > 100 µM | GI50 [30]: 2.35 µM | TGI [30]: 6.27 µM | GI50 [31]: 3.46 µM | TGI [31]: 14.3 µM | GI50 [32]: 1.9 µM | TGI [32]: 4.28 µM | GI50 [33]: 2.06 µM | TGI [33]: 4.91 µM | GI50 [34]: 3.22 µM | TGI [34]: 12.1 µM | GI50 [35]: 3.78 µM | TGI [35]: 13.8 µM | GI50 [36]: 3.31 µM | TGI [36]: 12.9 µM | GI50 [37]: 2.27 µM | TGI [37]: 5.75 µM | GI50 [38]: 2.89 µM | TGI [38]: 11.7 µM | GI50 [39]: 2.01 µM | TGI [39]: 4.75 µM | GI50 [40]: 2.05 µM | TGI [40]: 4.67 µM | GI50 [41]: 4.2 µM | TGI [41]: 28.6 µM | GI50 [42]: 3.36 µM | TGI [42]: 25.1 µM | GI50 [43]: 3.31 µM | TGI [43]: > 100 µM | GI50 [44]: 3.92 µM | TGI [44]: > 100 µM | GI50 [45]: 4.58 µM | TGI [45]: 20.3 µM | GI50 [46]: 5 µM | TGI [46]: 17.9 µM | GI50 [47]: 2.3 µM | TGI [47]: 5.77 µM | GI50 [48]: 3.27 µM | TGI [48]: 15.9 µM | GI50 [49]: 1.92 µM | TGI [49]: 3.87 µM | GI50 [50]: 2.45 µM | TGI [50]: 9.55 µM
